Values of other authors, collected in patent publication US7534449B2, “Targeted and high density drug loaded polymeric materials” (Yale University, priority 2004, dated 2009).

pKa: 7.6 | solubility (aqueous environments): limited solubility
Structure (SMILES): COc1cccc2c1C(=O)c1c(O)c3c(c(O)c1C2=O)C[C@@](O)(C(=O)CO)C[C@@H]3O[C@H]1C[C@H](N)[C@H](O)[C@H](C)O1 [Dox, doxorubicin]
